From US9790235B2, “MK2 inhibitors and uses thereof” (Celgene CAR LLC, priority 2014, dated 2017)
pEC50, pIC50: −log10 of the molar value. Where two headings read alike, the source gives them in different places.

What was measured:
[1] = biological target: p38α activated, mitogen-activated protein kinase-activated protein kinase 2 (MAPKAP-K2 or MK2) enzyme (Homo sapiens (Human), UniProt P49137); test: MK2 Omnia continuous-read kinase assay for compound potency; assay type: biochemical
In short: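 Continuous fluorescence read (λex360/λem485) with 0.4 nM p38α-activated MK2, 10 μM ATP (apparent KM) and 10 μM S/T3-Sox peptide, monitored over 120 min at room temperature. Background-corrected initial slopes gave % inhibition and IC50 with Hill slope; exponential fits gave kobs, yielding apparent kinact/KI.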

[2] = biological target: T1, MK2 (Homo sapiens (Human), UniProt P49137); test: MK2 cellular assay, total and phospho-Hsp27 (Serine 78) by MSD ELISA (Thp1); assay type: cell-based
In short: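 PMA-differentiated (10 ng/mL, 72 h) Thp-1 cells were pretreated with compound (top 3000 nM) for 1 h at 37 °C, then stimulated with 50 ng/mL LPS for 45 min. Lysate phospho-Hsp27 (Ser78) and total Hsp27 were read by MSD electrochemiluminescence ELISA, and the value is expressed as percent phospho/total signal per well.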

[3] = biological target: T1, MK2
Description: Aliquots of the resulting mixture (6 μL each) were diluted with 0.2% trifluoroacetic acid (TFA, 10 μL) prior to micro C4 ZipTipping directly onto the MALDI target using sinapinic acid as the desorption matrix (10 mg/ml in 0.1% TFA:acetonitrile 50:50, v/v). The centroid mass of the target protein in the control sample was compared with the centroid mass of the target protein incubated with compound. A shift in the centroid mass of the treated protein compared to the untreated protein was divided by the molecular weight of the compound. This number corresponds to the percentage of modified protein (a measure of the proportion of total target protein covalently bound to the test compound) after one hour incubation.
3 μL of magnetic Ni-NTA beads were added to the 6 μL aliquots of sample, washed, eluted with 0.2% trifluoroacetic acid (TFA, 2 μL), and spotted directly onto the MALDI target using sinapinic acid as the desorption matrix (10 mg/ml in 0.1% TFA:acetonitrile 50:50, v/v). The centroid mass of the target protein in the control sample was compared with the centroid mass of the target protein incubated with compound. A shift in the centroid mass of the treated protein compared to the untreated protein was divided by the molecular weight of the compound. This number corresponds to the percentage of modified protein (a measure of the proportion of total target protein covalently bound to the test compound) after one hour incubation.

[4] = percentage of modified protein after 60 minutes at room temperature, 10-fold excess of compound, MALDI (I-1 to I-50), magnetic bead MALDI (I-51 to I-129)
[5] = [MK-2]=0.4 nM, [ATP]=10 μM, [ST3-Sox]=10 μM, read-out: MK2 IC50
[6] = Thp-1 cells, 1 hour compound, 50 ng/mL LPS 45 minutes, p-HSP27 (Ser78)/total HSP27, read-out: pHSP27 signaling EC50
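For Mass Modification in this document: covalent binding read from centroid mass shift of compound-treated versus untreated intact MK2, shift divided by compound molecular weight, giving fraction of total protein bound.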

T1 sequence (P49137 whole entry): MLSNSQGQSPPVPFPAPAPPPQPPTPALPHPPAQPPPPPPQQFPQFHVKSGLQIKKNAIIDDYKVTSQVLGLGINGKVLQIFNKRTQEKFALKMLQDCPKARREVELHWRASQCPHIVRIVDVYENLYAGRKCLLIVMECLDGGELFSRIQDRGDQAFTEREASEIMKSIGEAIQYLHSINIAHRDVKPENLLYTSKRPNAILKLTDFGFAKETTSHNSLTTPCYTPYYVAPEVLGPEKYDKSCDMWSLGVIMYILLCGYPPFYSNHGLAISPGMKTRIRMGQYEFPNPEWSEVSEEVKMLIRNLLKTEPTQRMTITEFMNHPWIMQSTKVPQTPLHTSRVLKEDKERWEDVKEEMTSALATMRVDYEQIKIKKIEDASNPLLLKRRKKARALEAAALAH
p38α activated, mitogen-activated protein kinase-activated protein kinase 2 (MAPKAP-K2 or MK2) enzyme, sequence (P49137 whole entry): as above

| SMILES | pIC50 [1] | pEC50 [2] | Mass Modification [3, 4] | pIC50 [1, 5] | pEC50 [2, 6] | pIC50 ([1]; read-out: MK2 IC50) | Mass Modification [3] |
| --- | --- | --- | --- | --- | --- | --- | --- |
| C[C@@H]1CNc2c(sc3ccc4nc(Oc5nc(Cl)ncc5CN5CC6CC(C6)C5)ccc4c23)C(=O)N1 [I-85, (R)-3-((5-((3-azabicyclo[3.1.1]heptan-3-yl)methyl)-2-chloropyrimidin-4-yl)oxy)-10-methyl-9,10,11,12-tetrahydro-8H-[1,4]diazepino[5′,6′:4,5]thieno[3,2-f]quinolin-8-one] | 6.30 to 7.00 | > 7.00 | E (mass modification of ≧70%) | – | – | – | – |
| C[C@@H]1CNc2c(sc3ccc4nc(Oc5nc(Cl)nc6c5COC6)ccc4c23)C(=O)N1 [I-86, (R)-3-((2-chloro-5,7-dihydrofuro[3,4-d]pyrimidin-4-yl)oxy)-10-methyl-9,10,11,12-tetrahydro-8H-[1,4]diazepino[5′,6′:4,5]thieno[3,2-f]quinolin-8-one] | – | – | E (mass modification of ≧70%) | > 7.00 | > 7.00 | – | – |
| COCCN(C)Cc1cnc(Cl)nc1Oc1ccc2c(ccc3sc4c(c32)NC[C@@H](C)NC4=O)n1 [I-90, (R)-3-((2-chloro-5-(((2-methoxyethyl)(methyl)amino)methyl)pyrimidin-4-yl)oxy)-10-methyl-9,10,11,12-tetrahydro-8H-[1,4]diazepino[5′,6′:4,5]thieno[3,2-f]quinolin-8-one] | – | – | E (mass modification of ≧70%) | 6.30 to 7.00 | > 7.00 | – | – |
| CCN1CCN(Cc2cnc(Cl)nc2Oc2ccc3c(ccc4sc5c(c43)NC[C@@H](C)NC5=O)n2)CC1 [I-94, (R)-3-((2-chloro-5-((4-ethylpiperazin-1-yl)methyl)pyrimidin-4-yl)oxy)-10-methyl-9,10,11,12-tetrahydro-8H-[1,4]diazepino[5′,6′:4,5]thieno[3,2-f]quinolin-8-one] | – | – | E (mass modification of ≧70%) | 6.30 to 7.00 | < 6.00 | – | – |
| C[C@@H]1CNc2c(sc3ccc4nc(Oc5nc(Cl)ncc5CN5CCCC(C)(C)C5)ccc4c23)C(=O)N1 [I-95, (R)-3-((2-chloro-5-((3,3-dimethylpiperidin-1-yl)methyl)pyrimidin-4-yl)oxy)-10-methyl-9,10,11,12-tetrahydro-8H-[1,4]diazepino[5′,6′:4,5]thieno[3,2-f]quinolin-8-one] | – | – | E (mass modification of ≧70%) | 6.30 to 7.00 | > 7.00 | – | – |
| C[C@@H]1CNc2c(sc3ccc4nc(Oc5nc(Cl)ncc5COC5(C)COC5)ccc4c23)C(=O)N1 [I-103, (R)-3-((2-chloro-5-(((3-methyloxetan-3-yl)oxy)methyl)pyrimidin-4-yl)oxy)-10-methyl-9,10,11,12-tetrahydro-8H-[1,4]diazepino[5′,6′:4,5]thieno[3,2-f]quinolin-8-one] | – | – | E (mass modification of ≧70%) | > 7.00 | 6.30 to 7.00 | – | – |
| C[C@@H]1CNc2c(sc3ccc4nc(Oc5nc(Cl)nc6c5CS(=O)(=O)CC6)ccc4c23)C(=O)N1 [I-105, (R)-3-((2-chloro-6,6-dioxido-7,8-dihydro-5H-thiopyrano[4,3-d]pyrimidin-4-yl)oxy)-10-methyl-9,10,11,12-tetrahydro-8H-[1,4]diazepino[5′,6′:4,5]thieno[3,2-f]quinolin-8-one] | – | – | E (mass modification of ≧70%) | > 7.00 | 6.30 to 7.00 | – | – |
| CO[C@@H]1CCCN(Cc2cnc(Cl)nc2Oc2ccc3c(ccc4sc5c(c43)NC[C@@H](C)NC5=O)n2)C1 [I-107, (R)-3-((2-chloro-5-(((R)-3-methoxypiperidin-1-yl)methyl)pyrimidin-4-yl)oxy)-10-methyl-9,10,11,12-tetrahydro-H-[1,4]diazepino[5′,6′:4,5]thieno[3,2-f]quinolin-8-one] | – | – | E (mass modification of ≧70%) | 6.30 to 7.00 | > 7.00 | – | – |
| C[C@@H]1CNc2c(sc3ccc4nc(Oc5nc(Cl)ncc5COCCC#N)ccc4c23)C(=O)N1 [I-111, (R)-3-((2-chloro-4-((10-methyl-8-oxo-9,10,11,12-tetrahydro-8H-[1,4]diazepino[5′,6′:4,5]thieno[3,2-f]quinolin-3-yl)oxy)pyrimidin-5-yl)methoxy)propanenitrile] | – | – | E (mass modification of ≧70%) | > 7.00 | 6.30 to 7.00 | – | – |
| C[C@@H]1CNc2c(sc3ccc4nc(Oc5nc(Cl)ncc5CS(C)(=O)=O)ccc4c23)C(=O)N1 [I-112, (R)-3-((2-chloro-5-((methylsulfonyl)methyl)pyrimidin-4-yl)oxy)-10-methyl-9,10,11,12-tetrahydro-8H-[1,4]diazepino[5′,6′:4,5]thieno[3,2-f]quinolin-8-one] | – | – | E (mass modification of ≧70%) | > 7.00 | 6.30 to 7.00 | – | – |
| C[C@@H]1CNc2c(sc3ccc4nc(Oc5nc(Cl)ncc5CN5C6CCC5COC6)ccc4c23)C(=O)N1 [I-114, (R)-3-((5-((3-oxa-8-azabicyclo[3.2.1]octan-8-yl)methyl)-2-chloropyrimidin-4-yl)oxy)-10-methyl-9,10,11,12-tetrahydro-8H-[1,4]diazepino[5′,6′:4,5]thieno[3,2-f]quinolin-8-one] | 6.30 to 7.00 | > 7.00 | E (mass modification of ≧70%) | – | – | – | – |
| C[C@@H]1CNc2c(sc3ccc4nc(Oc5nc(Cl)ncc5CN5C[C@@H](C)N[C@@H](C)C5)ccc4c23)C(=O)N1 [I-115, (R)-3-((2-chloro-5-(((3R,5S)-3,5-dimethylpiperazin-1-yl)methyl)pyrimidin-4-yl)oxy)-10-methyl-9,10,11,12-tetrahydro-8H-[1,4]diazepino[5′,6′:4,5]thieno[3,2-f]quinolin-8-one] | – | – | E (mass modification of ≧70%) | 6.30 to 7.00 | < 6.00 | – | – |
| C[C@@H]1CNc2c(sc3ccc4nc(Oc5nc(Cl)ncc5Br)ccc4c23)C(=O)N1 [I-116, (R)-3-((5-bromo-2-chloropyrimidin-4-yl)oxy)-10-methyl-9,10,11,12-tetrahydro-8H-[1,4]diazepino[5′,6′:4,5]thieno[3,2-f]quinolin-8-one] | – | – | E (mass modification of ≧70%) | > 7.00 | > 7.00 | – | – |
| C[C@@H]1CNc2c(sc3ccc4nc(Oc5cc(CN(C)C(C)(C)C)nc(Cl)n5)ccc4c23)C(=O)N1 [I-118, (R)-3-((6-((tert-butyl(methyl)amino)methyl)-2-chloropyrimidin-4-yl)oxy)-10-methyl-9,10,11,12-tetrahydro-8H-[1,4]diazepino[5′,6′:4,5]thieno[3,2-f]quinolin-8-one] | – | – | E (mass modification of ≧70%) | 6.00 to 6.30 | 6.30 to 7.00 | – | – |
| C[C@@H]1CNc2c(sc3ccc4nc(Oc5nc(F)nc6c5COC6)ccc4c23)C(=O)N1 [I-119, (R)-3-((2-fluoro-5,7-dihydrofuro[3,4-d]pyrimidin-4-yl)oxy)-10-methyl-9,10,11,12-tetrahydro-8H-[1,4]diazepino[5′,6′:4,5]thieno[3,2-f]quinolin-8-one] | – | – | F (mass modification of 31-69%) | > 7.00 | > 7.00 | – | – |
| C[C@@H]1CNc2c(sc3ccc4nc(Oc5nc(Cl)ncc5C5=CCN(C)CC5)ccc4c23)C(=O)N1 [I-122] | – | – | E (mass modification of ≧70%) | > 7.00 | 6.30 to 7.00 | – | – |
| C[C@@H]1CNc2c(sc3ccc4nc(Oc5nc(Cl)ncc5C5=CCOCC5)ccc4c23)C(=O)N1 [I-124, (R)-3-((2-chloro-5-(3,6-dihydro-2H-pyran-4-yl)pyrimidin-4-yl)oxy)-10-methyl-9,10,11,12-tetrahydro-8H-[1,4]diazepino[5′,6′:4,5]thieno[3,2-f]quinolin-8-one] | – | – | E (mass modification of ≧70%) | > 7.00 | 6.30 to 7.00 | – | – |
| C[C@@H]1CNc2c(sc3ccc4nc(Oc5nc(Cl)nc6c5CN(C)CC6)ccc4c23)C(=O)N1 [I-126, (R)-3-((2-chloro-6-methyl-5,6,7,8-tetrahydropyrido[4,3-d]pyrimidin-4-yl)oxy)-10-methyl-9,10,11,12-tetrahydro-8H-[1,4]diazepino[5′,6′:4,5]thieno[3,2-f]quinolin-8-one] | – | – | – | – | > 7.00 | > 7.00 | E (key: E: mass modification of ≧70%; F: mass modification of 31-69%; G: mass modification ≦30%) |
| C[C@@H]1CNc2c(sc3ccc4nc(Oc5nc(Cl)ncc5CN5CCC(OCCF)CC5)ccc4c23)C(=O)N1 [I-131, (R)-3-((2-chloro-5-((4-(2-fluoroethoxy)piperidin-1-yl)methyl)pyrimidin-4-yl)oxy)-10-methyl-9,10,11,12-tetrahydro-8H-[1,4]diazepino[5′,6′:4,5]thieno[3,2-f]quinolin-8-one] | – | – | E (mass modification of ≧70%) | > 7.00 | > 7.00 | – | – |
